The results in this text go back to article PMC10669572, “Norlobaridone Inhibits Quorum Sensing-Dependent Biofilm Formation and Some Virulence Factors in Pseudomonas aeruginosa by Disrupting Its Transcriptional Activator Protein LasR Dimerization” (Biomolecules, 2023).

Values after ≈ are worked out from the molar mass of the structure shown.

Data set [1] has as its system P. aeruginosa. As to the kind of experiment: microbe, parasite or virus in culture. Also noted: crystal violet biofilm formation assay in 96-well plates, OD570. The following applies: Pseudomonas aeruginosa, 24 h, read-out: % P. aeruginosa biofilm inhibition. On the procedure:
In 96-well polystyrene plates, the influence of NBD on biofilm growth was studied. The experiment was carried out in the manner reported by Stepanovi et al., with a few minor changes. P. aeruginosa cells were cultured in LB medium, vortexed, then diluted 1:100 in new LB media to a final concentration of 1.5 × 10^8 CFU/mL (0.5 McFarland) for biofilm development. Cells were then cultured for 24 h at 37 °C with or without NBD. Following that, non-adherent bacteria were washed away in sterile phosphate-buffered saline (PBS), and adherent bacteria were stained for 15 min with a 1% crystal violet solution. Water was used to clean the wells in order to remove any remaining stains. The absorbance of the crystal violet solution at OD570 was determined by spectrophotometric analysis. Wells with phosphate buffer-enriched media were utilized as negative controls. As a positive control, azithromycin (AZM) was used, which inhibits biofilm formation at sub-inhibitory concentrations. […] At this dose, NBD had no effect on the growth of P. aeruginosa, as shown by the fact that the growth curve of the bacteria in the presence of 5 μg/mL NBD was identical to the curve in the absence of the treatment (Figure S1).

Data set [2] concerns P. aeruginosa. As to the kind of experiment: microbe, parasite or virus in culture. Also noted: antibacterial MIC determination. As to conditions: Pseudomonas aeruginosa. On the procedure: At this dose, NBD had no effect on the growth of P. aeruginosa, as shown by the fact that the growth curve of the bacteria in the presence of 5 μg/mL NBD was identical to the curve in the absence of the treatment (Figure S1).

In another data set the test system is E. coli. As to the kind of experiment: microbe, parasite or virus in culture. As to conditions: Escherichia coli. Also noted: antibacterial MIC determination.
Data set [3] concerns the molecule itself. The experiment in a line: AUC; sedimentation velocity, 141,900 x g, 20 °C, 20 mM Hepes pH 7.5, 100 mM NaCl; LasR 0.5 and 1 mg/mL produced with and in the presence of 100 μM OdDHL; c(S) and c(M) distributions in SEDFIT.

One may read the inhibition as the change of the read-out against control, counted positive when it falls. For the molecule `Oc1cc(O)cc(O)c1` [Phloroglucinol], in the data set on P. aeruginosa [1], the inhibition at 5 µg/mL stood at 31.1%. The MIC in the data set with P. aeruginosa [2] and against E. coli was 64 µg/mL (≈ 507 µM) throughout.
Turning to `Oc1cccc(O)c1` [Resorcinol], the inhibition at 5 µg/mL with P. aeruginosa [1] was 27.7%. Also, the MIC in the data set with P. aeruginosa [2] and with E. coli was 128 µg/mL (≈ 1160 µM) in each case.
As to `CCCCCc1ccccc1O` [Pentylphenol], the inhibition at 5 µg/mL in the data set on P. aeruginosa [1] turned out to be 11.4%. Besides, the MIC was 256 µg/mL (≈ 1560 µM) with P. aeruginosa [2] and > 256 µg/mL against E. coli.
Take `CC(=O)c1c(O)c(C)c(O)c(Cc2c(O)c3c(c(C(=O)/C=C/c4ccccc4)c2O)OC(C)(C)C=C3)c1O` [Rottlerin]: in the data set on P. aeruginosa [1], the inhibition at 5 µg/mL was determined as 7.9%. The MIC with P. aeruginosa [2] and against E. coli was > 256 µg/mL in each case.
For `CCCCCc1cc(O)cc2c1Oc1cc(O)cc(C(=O)CCCC)c1C(=O)O2` [NBD, norlobaridone], the inhibition at 5 µg/mL in the data set on P. aeruginosa [1] was 64.6%. In addition, the MIC against P. aeruginosa [2] and against E. coli was 128 µg/mL (≈ 321 µM) throughout.
As to `O=c1oc2c(O)c(O)cc3c(=O)oc4c(O)c(O)cc1c4c23` [Ellagic acid], the inhibition at 5 µg/mL in the data set with P. aeruginosa [1] was 22.8%. For the same molecule, the MIC against P. aeruginosa [2] and in the data set with E. coli was 128 µg/mL (≈ 424 µM) each time.
In the case of `O=C(O)c1cc(O)c(O)c(O)c1` [Gallic acid], the inhibition at 5 µg/mL in the data set on P. aeruginosa [1] stood at 21.4%. For the same molecule, the MIC with P. aeruginosa [2] and against E. coli was > 256 µg/mL in each case.
For `O=C(O)c1ccc(O)cc1` [P-hydroxy benzoic acid], in the data set with P. aeruginosa [1], the inhibition at 5 µg/mL came out at 12.9%. For the same molecule, the MIC against P. aeruginosa [2] is 128 µg/mL (≈ 927 µM); in the data set on E. coli, > 256 µg/mL.

B1: LasR (Pseudomonas aeruginosa transcriptional activator protein, LuxR-type quorum sensing receptor) (natural protein)
chain: MALVDGFLELERSSGKLEWSAILQKMASDLGFSKILFGLLPKDSQDYENAFIVGNYPAAWREHYDRAGYARVDPTVSHCTQSVLPIFWEPSIYQTRKQHEFFEEASAAGLVYGLTMPLHGARGELGALSLSVEAENRAEANRFMESVLPTLWMLKDYALQSGAGLAFEHPVSKPVVLTSREKEVLQWCAIGKTSWEISVICNCSEANVNFHMGNIRRKFGVTSRRVAAIMAVNLGLITL
notes: predicted molecular weight of the single chain 26.62 kD; Produced and kept with a small-molecule ligand: odDHL (dimer) or norlobaridone, NBD (monomer); also called LasR-odDHL; NBD-LasR; source: E. coli BL21 (pET23b, 1 mM IPTG, 18 °C overnight) in the presence of 100 μM OdDHL or 100 μM NBD; purified (heparin column, MonoQ, S200 size exclusion)
By stoichiometry N is commonly meant a count of units in the complex or per binding partner. B1: in data set [3], the “stoichiometry N” value was 2.
